PubChem BioAssay (NCI)
Where “and” joins values, the source holds several entries; their conditions need not be identical. Equal values may be shown once.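 Tested at 5 concentrations; 48 h exposure; 96-well plates; endpoints linearly interpolated, else capped at highest concentration. GI50: concentration for 50% inhibition of growth. TGI is the concentration that stops growth completely.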 *1 amine or outer side, *2 acyl side, *3 side chain or, on linkers, in order; H or OH if unused. Where a SMILES comes first, the peptide text is derived from it. Bridges are numbered along the chain shown (N, C = ends). [ ]: non-standard residue; d: D form. ξ: configuration not given here. X4 = CCC(C)C(N[*:1])C(O)CC(=O)O[C@H](C(=O)C(C)C(=O)[*:2])C(C)C; NMeY = CN[C@@H](Cc1ccc(O)cc1)C(=O)O; ξNMeL = CNC(CC(C)C)C(=O)O; ξT = CC(O)C(N)C(=O)O

Experiments:
Test in all cases: DTP human tumour cell line panel, 48 h
[1] = tested on: HCT-15 colon
[2] = tested on: LOX IMVI melanoma
[3] = tested on: NCI/ADR-RES ovarian
[4] = tested on: OVCAR-3 ovarian
[5] = tested on: OVCAR-8 ovarian
[6] = tested on: SF-539 CNS
[7] = tested on: SK-MEL-2 melanoma
[8] = tested on: SK-OV-3 ovarian
[9] = tested on: SW-620 colon
[10] = tested on: UO-31 renal

Row | SMILES | GI50 [1] | TGI [1] | GI50 [2] | TGI [2] | GI50 [3] | TGI [3] | GI50 [4] | TGI [4] | GI50 [5] | TGI [5] | GI50 [6] | TGI [6] | GI50 [7] | TGI [7] | GI50 [8] | TGI [8] | GI50 [9] | TGI [9] | GI50 [10] | TGI [10]
1 | C=CC(=O)N1CCCC(n2nc(-c3ccc(Oc4ccccc4)cc3)c3c(N)ncnc32)C1 (stereo not drawn) | 12.6 µM | 28.9 µM | 4.26 µM | 19.1 µM | 4.27 µM | 34.8 µM | 6.23 µM | 20.4 µM | 6.56 µM | 20.4 µM | 6.73 µM | 21 µM | 16 µM | 31.6 µM | 0.0216 µM | 15.8 µM | 16.1 µM | 33.4 µM | 1.4 µM | 13.5 µM
2 | Cc1ccc(C(=O)c2oc3ccc4c(C)cc(=O)oc4c3c2C)cc1 | 0.585 µM | > 100 µM | 2.45 µM | 19.1 µM | 10.2 µM | > 100 µM | 14.7 µM | 54.8 µM | 6.08 µM | > 100 µM | 1.41 µM | 20.1 µM | 35 µM | > 100 µM | 18 µM | > 100 µM | 8.56 µM | > 100 µM | 11.4 µM | > 100 µM
3 | COc1cc(OC)c(/C=C/c2ccc3ccccc3[n+]2C)c(OC)c1 | 12.8 µM | > 100 µM | 1.33 µM | 3.99 µM | > 66.4 µM | > 100 µM | 0.56 µM | 3.9 µM | 0.507 µM | 6.48 µM | 0.422 µM | 5.78 µM | 1.13 µM | 3.06 µM | 1.37 µM | 26 µM | 0.902 µM | 11.3 µM | 6.14 µM | 54 µM
4 | CN(C(=O)c1ccc(Cl)s1)C(=S)N(C)C(=O)c1ccc(Cl)s1 |  | > 10 µM |  | > 10 µM |  | > 10 µM |  | > 10 µM |  | > 10 µM |  | > 10 µM |  | > 10 µM |  | > 10 µM |  | > 10 µM |  | > 10 µM
5 | COC(=O)CCC/C=C\C[C@H]1C=CC(=O)/C1=C/C[C@@H](O)CCc1cccc(C(F)(F)F)c1 | 1.67 µM | 4.18 µM | 0.955 µM | 2.24 µM | 2.81 µM | 10.9 µM | 1.97 µM | 4.08 µM | 3.31 µM | 11.8 µM | 2.9 µM | 9.24 µM | 3.19 µM | 11.5 µM | 4.94 µM | 16.5 µM | 3.28 µM | 10.6 µM | 1.73 µM | 3.29 µM
6 | COc1ccc2c(c1)C(=O)CC(N)C2 (stereo not drawn) |  | > 100 µM |  | > 100 µM |  | > 100 µM |  | > 100 µM |  | > 100 µM |  |  |  | > 100 µM |  | > 100 µM |  | > 100 µM |  | > 100 µM
7 | COc1cc(OC2OC(C)C(O)C(O)C2O)cc2oc(-c3ccc(O)cc3)c(CC=C(C)C)c(=O)c12 (stereo not drawn) | 16.8 µM | 52.1 µM | 10.4 µM | 23 µM | 24.3 µM | 93.3 µM | 17.1 µM | 66.3 µM | 32.3 µM | > 100 µM | 19.5 µM | 44.2 µM | 35.9 µM | > 100 µM | 20.8 µM | 45.4 µM | 19.7 µM | 44 µM | 16.2 µM | 64.6 µM
8 | COc1ccc2c(c1)sc1nc(-c3ccccc3)c(-c3ccsc3)n12 | 2.91 µM | > 100 µM | 5.25 µM | > 100 µM | 2.53 µM | > 100 µM | 2.15 µM | 5.37 µM | 5.95 µM | > 100 µM | 2.62 µM | > 100 µM | 9.72 µM | > 100 µM | 3.48 µM | 64.6 µM | 3.84 µM | > 100 µM | 6.03 µM | > 100 µM
9 | Clc1nc(Oc2ccccc2)nc(-c2cn(-c3ccccc3)c3ccccc23)n1 | 5.38 µM | 18 µM | 2.44 µM | 5.93 µM | 17.8 µM | 34.9 µM | 3.37 µM | 10.2 µM | 3.25 µM | 11 µM | 16.1 µM | 30 µM | 4.66 µM | 18.5 µM | 18.9 µM | 40.3 µM | 2.92 µM | 9.24 µM | 3.04 µM | 7.95 µM
10 | O=C(Nc1ccccc1C(F)(F)F)c1cccc(NC2=C(Cl)C(=O)N(Cc3ccccc3)C2=O)c1 | 3.8 µM | > 24.5 µM | 5.87 µM | 36.9 µM | 9.14 µM | 40.7 µM | 6.62 µM | > 43.8 µM | 42.3 µM | > 72.1 µM | 12.1 µM | 34.8 µM | 14.9 µM | 79 µM | 38.9 µM | > 100 µM | 22 µM | > 100 µM | 19.8 µM | 97.8 µM
11 | COc1cc2nc(-c3ccc(C(F)(F)F)cc3)cc(OCCCN3CCOCC3)c2cc1OC | 0.52 µM | 5.57 µM | 0.141 µM | 0.324 µM | 0.64 µM | 22.7 µM | 3.72 µM | 18.4 µM | 1.95 µM | 28.8 µM | 3.18 µM | 16.4 µM | 3.32 µM | 13.1 µM | 5.04 µM | 22.4 µM | 3.51 µM | 15.4 µM | 1.77 µM | 7.3 µM
12 | CC(C)c1ccc(Cc2cnc(NC(=O)c3cc(Br)cs3)s2)cc1 | 0.789 µM | > 100 µM | 5.35 µM | > 100 µM | 1.73 µM | 5.31 µM | 2.75 µM | > 100 µM | 4.4 µM | > 100 µM | 2.04 µM | 5.64 µM | 7.43 µM | 64.4 µM | 6.06 µM | 95.7 µM | 2.98 µM | > 100 µM | 3.8 µM | > 100 µM
13 | CCCCCCC/C=C/[C@H]1O[C@]23C(=O)C[C@@]4(C[C@@H](OC5OC(CO)C(O)C(O)C5O)C[C@@H]4[C@H]2C=C1C)OC3=O (stereo partly drawn) | 2.53 µM | 9.43 µM | 2.4 µM | 6.84 µM | 6.99 µM | > 33.3 µM | 2.28 µM | 6.71 µM | 6.08 µM | > 33.3 µM | 5.1 µM | 9.99 µM | 5.33 µM | 15.1 µM | 7.13 µM | 21.6 µM | 3.56 µM | 11.7 µM | 3.61 µM | 7.57 µM
14 | CCC(C)C1NC(=O)C(NC(=O)C(CC(C)C)N(C)C(=O)[C@@H]2CCCN2)C(C)OC(=O)[C@H](Cc2ccc(OC)cc2)N(C)C(=O)[C@@H]2CCCN2C(=O)[C@H](CC(C)C)NC(=O)C(C)C(=O)[C@H](C(C)C)OC(=O)CC1O (stereo partly drawn) (H-P[ξNMeL][ξT][X4]LP[NMeY](Me); ester 3-C) |  | 0.224 µM and 0.146 µM |  | 0.00206 µM and 0.0101 µM | 0.233 µM | 0.78 µM and 3.74 µM |  | 0.00686 µM |  | 0.0243 µM and 0.0387 µM |  | 0.00208 µM |  |  |  | 0.0177 µM |  | 0.0802 µM and 0.0232 µM | 0.0253 µM | 0.118 µM and 0.444 µM
15 | Nc1nc(-c2cccc([N+](=O)[O-])c2)c(Br)c(=O)[nH]1 |  | > 100 µM |  | > 100 µM |  | > 100 µM |  | > 100 µM |  | > 100 µM |  | > 82 µM |  | > 100 µM |  | > 100 µM |  | > 100 µM |  | > 100 µM
16 | O=c1oc2ccccc2c(O)c1/C=N\c1nc(-c2ccccc2)cs1 |  |  |  | 23.6 µM |  | 63.5 µM |  | 30.8 µM |  | > 100 µM |  | 6.39 µM |  | 36 µM |  | > 100 µM |  | 16.2 µM |  | 20.4 µM
17 | COc1cc(-c2cnn(C)c2)ccc1Nc1ncc2ccnc(N[C@@H](C)C(C)(C)C)c2n1 | 0.651 µM | > 100 µM | 5.43 µM | > 100 µM | > 43.4 µM | > 100 µM | > 89.8 µM | > 100 µM | > 49.6 µM | > 100 µM | > 57.3 µM | > 100 µM | > 100 µM | > 100 µM | > 68.1 µM | > 100 µM | 1.46 µM | > 100 µM | > 100 µM | > 100 µM
18 | CC1(C)C2CC(c3ccncc3)ON2C(C)(C)N1O (stereo not drawn) |  | > 100 µM |  | > 100 µM |  | > 100 µM |  | > 100 µM |  | > 100 µM |  | > 100 µM |  | > 100 µM |  | > 100 µM |  | > 100 µM |  | > 100 µM
19 | CCN(CC)CCNc1c(OC)cc(C)c2sc3ccccc3c(=O)c12 |  | 14.4 µM |  |  |  | 19.2 µM |  | 26.2 µM |  | 26.1 µM |  | 23 µM |  | 27.9 µM |  | 31.3 µM |  | 17.9 µM |  | 20.3 µM
20 | O=c1ccn(C2OC(CO)C(O)C2O)c(=O)[nH]1 (stereo not drawn) | > 1000 µM | > 1000 µM | > 1000 µM | > 1000 µM | > 1000 µM | > 1000 µM | > 1000 µM | > 1000 µM | > 1000 µM | > 1000 µM | > 1000 µM | > 1000 µM | > 1000 µM | > 1000 µM | > 1000 µM | > 1000 µM | > 1000 µM | > 1000 µM |  | 
21 | COc1cc2c(cc1OCc1ccccc1)N=C[C@@H]1C/C(=C/C(=O)NCCCN3C(=O)c4cccc5cccc(c45)C3=O)CN1C2=O | 3.96 µM | > 100 µM | 0.277 µM | > 35.8 µM | 12.8 µM | > 100 µM | 0.273 µM | 3.72 µM | 1.22 µM |  | 0.332 µM | 1.47 µM |  |  | 8.35 µM | 33.5 µM | 0.284 µM | 15.5 µM | 2.68 µM | > 20.7 µM
